Measured values as given in patent US9216986B1, “Quinoline derivatives as PDE10A enzyme inhibitors” (H. Lundbeck A/S, priority 2011, dated 2015).

What was measured:
PDE10A enzyme = PDE10A enzyme (Homo sapiens (Human), UniProt Q9Y233); assay: PDE10A inhibition assay; assay type: biochemical; conditions: tritium labeled cAMP 5 nM
Experimental: Active PDE10A enzyme is prepared in a number of ways for use in PDE assays (Loughney, K. et al. Gene 1999, 234, 109-117; Fujishige, K. et al. Eur J Biochem. 1999, 266, 1118-1127 and Soderling, S. et al. Proc. Natl. Acad. Sci. 1999, 96, 7071-7076). PDE10A can be expressed as full-length proteins or as truncated proteins, as long as they express the catalytic domain. PDE10A can be prepared in different cell types, for example insect cells or E. coli. An example of a method to obtain catalytically active PDE10A is as follows: The catalytic domain of human PDE10A (amino acids 440-779 from the sequence with accession number NP 006652) is amplified from total human brain total RNA by standard RT-PCR and is cloned into the BamH1 and Xho1 sites of the pET28a vector (Novagen). Expression in coli is performed according to standard protocols. Briefly, the expression plasmids are transformed into the BL21(DE3) E. coli strain, and 50 mL cultures inoculated with the cells allowed to grow to an OD600 of 0.4-0.6 before protein expression is induced with 0.5 mM IPTG. Following induction, the cells are incubated overnight at room temperature, after which the cells are collected by centrifugation. Cells expressing PDE10A are resuspended in 12 mL (50 mM TRIS-HCl-pH8.0, 1 mM MgCl2 and protease inhibitors). The cells are lysed by sonication, and after all cells are lysed, TritonX100 is added according to Novagen protocols.
A PDE10A assay may for example, be performed as follows: The assay is performed in 60 uL samples containing a fixed amount of the relevant PDE enzyme (sufficient to convert 20-25% of the cyclic nucleotide substrate), a buffer (50 mM HEPES7.6; 10 mM MgCl2; 0.02% Tween20), 0.1 mg/ml BSA, 225 pCi of ^3H-labelled cyclic nucleotide substrate, tritium labeled cAMP to a final concentration of 5 nM and varying amounts of inhibitors. Reactions are initiated by addition of the cyclic nucleotide substrate, and reactions are allowed to proceed for one hr at room temperature before being terminated through mixing with 15 uL 8 mg/mL yttrium silicate SPA beads (Amersham). The beads are allowed to settle for one hr in the dark before the plates are counted in a Wallac 1450 Microbeta counter. The measured signal can be converted to activity relative to an uninhibited control (100%) and IC50 values can be calculated using the XIfit extension to EXCEL.

rats [1] = conditions: cited from earlier work
rats [2] = conditions: cited from earlier work; remark: listed apart in the source
rats [3] = conditions: cited from earlier work; remark: listed apart in the source

Sequence of PDE10A enzyme (Q9Y233 716-1055): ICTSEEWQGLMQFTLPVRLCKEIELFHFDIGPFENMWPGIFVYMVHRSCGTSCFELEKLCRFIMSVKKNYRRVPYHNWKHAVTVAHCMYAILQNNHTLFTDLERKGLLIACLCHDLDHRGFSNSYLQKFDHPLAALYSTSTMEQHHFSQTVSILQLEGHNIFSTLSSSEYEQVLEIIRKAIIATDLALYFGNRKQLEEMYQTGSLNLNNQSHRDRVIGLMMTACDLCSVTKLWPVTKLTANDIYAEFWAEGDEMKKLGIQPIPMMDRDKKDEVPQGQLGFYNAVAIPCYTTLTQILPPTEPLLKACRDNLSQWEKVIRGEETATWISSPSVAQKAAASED

IC50 (PDE10A enzyme) [nM]	SMILES	further results
240	Cc1ncc(C)n2nc(CCc3ccc4cc(Cl)cc(F)c4n3)nc12 [6-Chloro-2-[2-(5,8-dimethyl-[1,2,4]triazolo[1,5-a]pyrazin-2-yl)-ethyl]-8-fluoro-quinoline]	
42	Cc1ncc(C)n2nc(CCc3ccc4cc(Cl)ccc4n3)nc12 [6-Chloro-2-[2-(5,8-dimethyl-[1,2,4]triazolo[1,5-a]pyrazin-2-yl)-ethyl]-quinoline]	
34	COc1ccc(C)n2nc(CCc3ccc4cc(F)ccc4n3)nc12 [6-Fluoro-2-[2-(8-methoxy-5-methyl-[1,2,4]triazolo[1,5-a]pyridin-2-yl)-ethyl]-quinoline]	
520	Cc1ncc(C)n2nc(CCc3ccc4cc5c(cc4n3)OC(F)(F)O5)nc12 [6-[2-(5,8-Dimethyl-[1,2,4]triazolo[1,5-a]pyrazin-2-yl)-ethyl]-2,2-difluoro-[1,3]dioxolo[4,5-g]quinoline]	
13	Cc1ncc(C)n2nc(CCc3ccc4cc5c(cc4n3)OCO5)nc12 [6-[2-(5,8-Dimethyl-[1,2,4]triazolo[1,5-a]pyrazin-2-yl)-ethyl]-[1,3]dioxolo[4,5-g]quinoline]	
59	Cc1ncc(C)n2nc(CCc3ccc4cc(C#N)c(Cl)cc4n3)nc12 [7-Chloro-2-[2-(5,8-dimethyl-[1,2,4]triazolo[1,5-a]pyrazin-2-yl)-ethyl]-quinoline-6-carbonitrile]	
52	Cc1ncc(C)n2nc(CCc3ccc4ccc(Cl)cc4n3)nc12 [7-Chloro-2-[2-(5,8-dimethyl-[1,2,4]triazolo[1,5-a]pyrazin-2-yl)-ethyl]-quinoline]	
4	Cc1ncc(C)n2nc(CCc3ccc4cc5c(cc4n3)OCCO5)nc12 [7-[2-(5,8-Dimethyl-[1,2,4]triazolo[1,5-a]pyrazin-2-yl)-ethyl]-2,3-dihydro-[1,4]dioxino[2,3-g]quinoline]	
290	Cc1cc(Cl)c2nc(CCc3nc4c(C)ncc(C)n4n3)ccc2c1 [8-Chloro-2-[2-(5,8-dimethyl-[1,2,4]triazolo[1,5-a]pyrazin-2-yl)-ethyl]-6-methyl-quinoline]	
150	COc1ccc(C)n2nc(CCc3ccc4cccc(F)c4n3)nc12 [8-Fluoro-2-[2-(8-methoxy-5-methyl-[1,2,4]triazolo[1,5-a]pyridin-2-yl)-ethyl]-quinoline]	
	COc1ccc(Cc2nccc3cc(OC)c(OC)cc23)cc1OC [Papaverine, papaverine]	catalepsy on its own (rats [1]; papaverine alone): did not cause catalepsy on its own; cataleptic effect of the D2 receptor antagonist haloperidol (rats [1]; together with haloperidol): potentiated the cataleptic effect; hyperactivity induced by PCP (rats [2]): reduced hyperactivity; reduction of amphetamine induced hyperactivity (rats [3]): insignificant
